In the NIST ThermoML archive (doi:10.1016/j.tca.2014.07.018):

Experiment: molar heat capacity at saturation pressure
Details: Crystal, Small (less than 1 g) adiabatic calorimetry

C1C2CC3CC1CC(c1nnn[nH]1)(C2)C3 [5-(1-adamantyl)tetrazole]
Details	molar heat capacity [J/K/mol]
5.162 K	0.5343
5.486 K	0.6514
5.811 K	0.7886
6.141 K	0.9446
6.535 K	1.157
6.999 K	1.433
7.466 K	1.748
7.944 K	2.099
8.427 K	2.496
8.915 K	2.914
9.407 K	3.374
9.905 K	3.847
10.47 K	4.424
11.12 K	5.106
11.77 K	5.817
12.42 K	6.568
13.1 K	7.361
13.77 K	8.166
14.45 K	9.013
15.14 K	9.87
15.93 K	10.87
16.83 K	12.03
17.74 K	13.17
18.65 K	14.31
19.56 K	15.45
20.76 K	16.96
22.25 K	18.79
23.76 K	20.65
25.27 K	22.46
26.78 K	24.22
28.31 K	25.96
29.59 K	27.43
31.31 K	29.26
33.16 K	31.15
35.01 K	33.01
36.86 K	34.76
38.72 K	36.52
40.58 K	38.18
42.54 K	39.91
44.6 K	41.62
46.67 K	43.41
48.74 K	45.04
50.82 K	46.64
52.9 K	48.22
54.99 K	49.8
57.07 K	51.31
59.17 K	52.73
61.28 K	54.19
63.38 K	55.67
65.49 K	57.06
67.6 K	58.52
69.71 K	59.93
71.92 K	61.4
74.24 K	62.88
76.57 K	64.45
78.7 K	65.87
78.9 K	65.93
80.66 K	67.14
81.23 K	67.48
82.56 K	68.36
83.56 K	68.98
84.46 K	69.59
86.37 K	70.82
88.29 K	72.06
90.2 K	73.3
92.12 K	74.53
94.04 K	75.78
95.96 K	77.1
97.9 K	78.34
99.83 K	79.61
101.75 K	80.79
103.69 K	82.06
105.62 K	83.32
107.56 K	84.62
109.51 K	85.87
111.45 K	87.18
113.4 K	88.45
115.36 K	89.75
117.32 K	91.05
119.27 K	92.33
121.23 K	93.59
123.19 K	94.91
125.16 K	96.2
127.12 K	97.48
129.09 K	98.86
131.06 K	100.1
133.04 K	101.5
135.02 K	102.8
137 K	104.2
138.98 K	105.5
140.97 K	106.9
142.95 K	108.3
144.93 K	109.7
146.93 K	111.1
148.92 K	112.6
150.91 K	114
152.9 K	115.4
154.89 K	116.8
156.89 K	118.3
158.89 K	119.8
160.89 K	121.3
162.89 K	122.7
164.89 K	124.3
166.9 K	125.8
168.9 K	127.4
170.91 K	128.9
172.92 K	130.5
174.93 K	132
176.93 K	133.7
178.93 K	135.1
180.94 K	136.8
182.95 K	138.3
184.97 K	140.1
186.99 K	141.6
189 K	143.3
191.02 K	144.9
193.03 K	146.6
195.05 K	148.4
197.07 K	150.1
199.09 K	151.7
201.1 K	153.4
203.13 K	155.1
205.16 K	156.8
207.18 K	158.6
209.21 K	160.4
211.24 K	162.1
213.27 K	163.9
215.3 K	165.7
217.33 K	167.6
219.37 K	169.4
221.4 K	171.2
223.43 K	173
224.08 K	173.6
225.46 K	174.9
226.05 K	175.4
227.5 K	176.8
228.08 K	177.3
230.12 K	179.2
232.16 K	181.1
234.19 K	183.1
236.23 K	184.9
238.27 K	186.8
240.31 K	188.8
242.35 K	190.8
244.39 K	192.5
246.43 K	194.5
248.47 K	196.4
250.51 K	198.4
252.55 K	200.3
254.59 K	202.2
256.64 K	204.1
258.68 K	206.2
260.73 K	208
262.77 K	209.9
264.81 K	211.9
266.86 K	213.7
268.9 K	215.5
270.94 K	217.3
272.99 K	219.2
275.03 K	221
277.08 K	222.9
279.13 K	224.5
281.18 K	226.3
283.22 K	227.9
285.27 K	229.8
287.32 K	231.5
289.37 K	233.1
291.42 K	234.7
293.46 K	236.3
295.51 K	237.9
297.56 K	239.7
299.61 K	241.3
301.65 K	242.8
303.7 K	244.6
305.75 K	246
307.8 K	247.6
309.86 K	249.2
311.91 K	250.7
313.96 K	252.3
316.02 K	253.9
318.07 K	255.5
320.14 K	256.9
322.2 K	258.6
324.26 K	260.2
326.32 K	261.8
328.38 K	263.2
330.44 K	264.8
332.5 K	266.3
334.57 K	267.8
336.63 K	269.4
338.69 K	270.9
340.76 K	272.4
342.83 K	274.2
344.9 K	275.7
346.97 K	277.1
349.04 K	278.9
351.11 K	280.5
353.2 K	282.1
355.27 K	283.8
357.34 K	285.5
359.41 K	287.2
361.48 K	288.9
363.56 K	290.4
365.63 K	292
367.7 K	293.7
